Columns and labels:
AGTR1 [1] = biological target: T1, AGTR1 (Homo sapiens, UniProt P30556); assay: DiscoveRx β-arrestin2 recruitment assay (enzyme complementation, Pathunter CHO-K1 AGTR1 β-arrestin cell line); format: cell-based; settings: for DiscoveRx β-arrestin2 Ymax (%): maximal response
T1 construct: host or cells: Pathunter CHO-K1 AGTR1 β-arrestin cell line (CHO-K1)
T1 sequence (P30556 1-359): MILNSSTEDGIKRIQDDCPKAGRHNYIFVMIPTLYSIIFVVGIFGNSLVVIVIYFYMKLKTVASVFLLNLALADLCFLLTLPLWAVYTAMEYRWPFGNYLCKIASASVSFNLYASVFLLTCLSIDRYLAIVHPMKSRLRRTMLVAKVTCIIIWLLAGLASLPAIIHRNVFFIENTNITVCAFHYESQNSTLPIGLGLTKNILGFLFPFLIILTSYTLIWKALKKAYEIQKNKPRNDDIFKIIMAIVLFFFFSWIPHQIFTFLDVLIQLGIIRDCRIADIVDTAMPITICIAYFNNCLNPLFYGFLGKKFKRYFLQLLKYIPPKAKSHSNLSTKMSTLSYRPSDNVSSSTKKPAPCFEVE
Method in brief: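 Chemiluminescent enzyme-complementation read-out of β-arrestin2 recruitment to AGTR1 in engineered CHO-K1 cells after 90 min compound exposure at 37° C. Values are 4-parameter logistic EC50s in agonist mode, IC50s in antagonist mode, with efficacy relative to the maximal All response.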

AGTR1 [2] = biological target: T1, AGTR1; assay: DiscoveRx IP1 accumulation assay (HTRF), agonist mode, Pathunter CHO-K1 AGTR1 β-arrestin cell line; format: cell-based; settings: for EC50: read-out: IP-1 EC50
Method in brief: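 Agonist mode in CHO-K1 AGTR1 β-arrestin cells plated 14-16 h before; compounds at varying concentrations for 90 min at 37° C, IP1 accumulation read by HTRF (D2-conjugate and anti-IP1 cryptate, 20 min room temperature). EC50 from 4-parameter logistic fit; activity given as percentage of maximal AII effect.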

hAT1R [3] = biological target: T2, hAT1R (Homo sapiens, UniProt P30556); assay: BRET β-arrestin2 biosensor assay, higher receptor expression (hAT1R 5 ng/well), HEK293 cells; format: cell-based; settings: for EC50: High AT1R Expression
T2 sequence (P30556 1-359): T1 sequence (P30556 1-359)

hAT1R [4] = biological target: T2, hAT1R; assay: cell-based; settings: agonist mode; for EC50: read-out: BRET P63 EC50
hAT1R [5] = biological target: T2, hAT1R; assay: cell-based; settings: section of the 42nd table ending at r951, example numbering restarts after the DiscoveRx section; read-out: β-arrestin2 EC50
[6] = DiscoveRx β-arrestin2 recruitment

Row | Compound | EC50 (AGTR1 [1]; [6]) [µM] | DiscoveRx β-arrestin2 Ymax (%) (AGTR1 [1]; [6]) | IP-1 Ymax (%) (AGTR1 [2]) | EC50 (AGTR1 [2]) [µM] | BRET β-Arrestin2 High AT1R Expression Ymax (%) (hAT1R [3]) | EC50 (hAT1R [3]) [µM] | BRET P63 Ymax (hAT1R [4]) [%] | EC50 (hAT1R [4]) [µM] | EC50 (AGTR1 [1]) [µM] | EC50 (hAT1R [5]) [µM]
1 | CCc1nc2c(C)cc(C)nc2n1Cc1ccc(-c2cc(-c3ccccc3O)ccc2C(=O)O)cc1 [Example 184] | 0.031 | 51.2 | 12.0 | 0.11 | 85.9 | 0.0147 |  |  |  | 
2 | CCc1nc2c(C)cc(C)nc2n1Cc1ccc(-c2cc(-c3ccc(C(=O)N(C)C)cc3)ccc2C(=O)O)cc1 [Example 185] | 0.139 | 48.9 | 13.8 | 0.204 | 86.7 | 0.149 | 11.7 | 0.447 |  | 
3 | CCc1nc2c(C)cc(C)nc2n1Cc1ncc(-c2cc(-c3cccc(C)c3)ccc2C(=O)O)cn1 [Example 198, 3-(2-((2-ethyl-5,7-dimethyl-3H-imidazo[4,5-b]pyridin-3-yl)methyl)pyrimidin-5-yl)-3′-methylbiphenyl-4-carboxylic acid] | 0.122 | 33.0 | 14.6 | 0.646 | 95.8 | 0.428 | 13.4 | 7.62 |  | 
4 | CCc1nc2c(C)cc(C)nc2n1Cc1cnc(-c2cc(-c3cccc(C)c3)ccc2C(=O)O)cn1 [Example 199, 3-(5-((2-ethyl-5,7-dimethyl-3H-imidazo[4,5-b]pyridin-3-yl)methyl)pyrazin-2-yl)-3′-methylbiphenyl-4-carboxylic acid] | 0.273 | 34.2 | 9.3 | 0.713 | 88.5 | 0.223 | 9.6 | 0.571 |  | 
5 | CCc1nc2c(C)cc(C)nc2n1Cc1ccc(-c2cc(-c3cccc(C)c3)ccc2C(=O)O)nn1 [Example 200, 3-(6-((2-ethyl-5,7-dimethyl-3H-imidazo[4,5-b]pyridin-3-yl)methyl)pyridazin-3-yl)-3′-methylbiphenyl-4-carboxylic acid] | 0.709 | 25.1 | 11.4 | 2.72 | 54.3 | 1.78 | 4.3 | 2.04 |  | 
6 | CCc1nc2c(C)cc(C)nc2n1Cc1cnc(-c2cc(-c3cccc(C)c3)ccc2C(=O)O)nc1 [Example 202, 3-(5-((2-ethyl-5,7-dimethyl-3H-imidazo[4,5-b]pyridin-3-yl)methyl)pyrimidin-2-yl)-3′-methylbiphenyl-4-carboxylic acid] | 1.11 | 19.4 | 5.7 | 2.94 | 52.0 | 1.62 |  | > 100 |  | 
7 | CCc1nc2c(C)cc(C)nc2n1Cc1ccc(-c2cc(-c3cccc(C)c3)ccc2C(=O)O)nc1 [Example 203, 3-(5-((2-ethyl-5,7-dimethyl-3H-imidazo[4,5-b]pyridin-3-yl)methyl)pyridin-2-yl)-3′-methyl-[1,1′-biphenyl]-4-carboxylic acid] | 0.162 | 32.3 | 34.9 | 5.37 | 79.1 | 0.124 | 5.4 | 0.154 |  | 
8 | CCc1nc2c(C)cc(C)nc2n1Cc1ccc(-c2cc(Oc3cccc(Cl)c3)ccc2-c2nnn[nH]2)cc1 [Example 206] | 0.0111 | 21.2 | 4.8 | 0.0354 | 57.9 | 0.0158 |  |  |  | 
9 | CCc1nc2c(C)cc(C)nc2n1Cc1ccc(-c2cc(Oc3cccc(OC(F)(F)F)c3)ccc2-c2nnn[nH]2)cc1 [Example 207] | 0.0115 | 23.1 | 2.5 | 0.0391 | 74.8 | 0.022 |  |  |  | 
10 | CCc1nc2c(C)cc(C)nc2n1Cc1ccc(-c2cc(Oc3ccccc3)cc(C)c2-c2nnn[nH]2)cc1 [Example 211, 2-Ethyl-5,7-dimethyl-3-((3′-methyl-5′-phenoxy-2′-(1H-tetrazol-5-yl)-[1,1′-biphenyl]-4-yl)methyl)-3H-imidazo[4,5-b]pyridine] | 0.0968 | 21.2 | 8.7 | 0.235 | 80.2 | 0.067 |  |  |  | 
11 | CCc1nc2c(C)cc(C)nc2n1Cc1ccc(-c2cc(OCc3ccccc3)ccc2-c2nnn[nH]2)cc1 [Example 212, 3-((5′-(Benzyloxy)-2′-(1H-tetrazol-5-yl)-[1,1′-biphenyl]-4-yl)methyl)-2-ethyl-5,7-dimethyl-3H-imidazo[4,5-b]pyridine] | 0.0101 | 11.2 | 3.8 | 0.0201 | 29.2 | 0.0106 |  |  |  | 
12 | CCc1nc2c(C)cc(C)nc2n1Cc1ccc(-c2cc(Oc3ccccc3)ccc2C(=O)O)cc1 [Example 213, 4′-((2-Ethyl-5,7-dimethyl-3H-imidazo[4,5-b]pyridin-3-yl)methyl)-5-phenoxy-[1,1′-biphenyl]-2-carboxylic acid] | 0.215 | 27.3 | 6.9 | 0.862 | 89.9 | 0.0929 |  |  |  | 
13 | CCc1nc2c(C)cc(C)nc2n1Cc1ccc(-c2cc(-n3cc(CCO)nn3)ccc2-c2nnn[nH]2)cc1 [Example 226] | 0.242 | 17.5 | 6.7 | 0.499 | 35.0 | 0.348 |  | > 100 |  | 
14 | CCc1nc2c(C)cc(C)nc2n1Cc1ccc(-c2cc(-n3cc(C4=CCCC4)nn3)ccc2-c2nnn[nH]2)cc1 [Example 229] | 0.039 | 24.0 | 6.7 | 0.195 | 82.1 | 0.0257 |  | > 100 |  | 
15 | CCc1nc2c(C)cc(C)nc2n1Cc1ccc(-c2cc(-c3cn(Cc4ccccc4)nn3)ccc2-c2nnn[nH]2)cc1 [Example 238] | 0.198 | 22.4 | 9.6 | 1.26 | 62.6 | 0.281 |  | > 100 |  | 
16 | CCc1nc2c(C)cc(C)nc2n1Cc1ccc(-c2cc(Oc3ccc(C)cn3)ccc2-c2nn[nH]n2)cc1 [Example 248] | 0.0265 | 18.2 | 6.8 | 0.0817 | 79.5 | 0.014 |  |  |  | 
17 | CCc1nc2c(C)cc(C)nc2n1Cc1ccc(-c2cc(Oc3cc(N)ccn3)ccc2-c2nn[nH]n2)cc1 [Example 249] | 0.0238 | 34.2 | 17.6 | 0.0705 | 80.3 | 0.008 | 6.6 | 0.0095 |  | 
18 | CCc1nc2c(C)cc(C)nc2n1Cc1ccc(-c2cc(Oc3nccs3)ccc2-c2nn[nH]n2)cc1 [Example 252] | 0.0343 | 15.8 | 8.8 | 0.144 | 41.4 | 0.0294 |  | > 100 |  | 
19 | CCc1nc2c(C)cc(C)nc2n1Cc1ccc(-c2cc(Oc3cncc(OC)c3)ccc2-c2nn[nH]n2)cc1 [Example 261] | 0.137 | 17.3 | 11.5 | 0.782 | 62.3 | 0.04 |  | > 100 |  | 
20 | Cc1nc(C)n(Cc2ccc(-c3cc(-c4ccccc4)ccc3-c3nn[nH]n3)cc2)n1 [Example 456, 5-(4″-((3,5-Dimethyl-1H-1,2,4-triazol-1-yl)methyl)-[1,1′:3′,1″-terphenyl]-4′-yl)-2H-tetrazole] |  |  |  |  |  |  |  |  | 1.87 | 1.97
21 | Cc1cnn(-c2ccc(-c3nn[nH]n3)c(-c3ccc(Cn4nc(C)nc4C)cc3)c2)c1 [Example 457, 5-(4′-((3,5-Dimethyl-1H-1,2,4-triazol-1-yl)methyl)-5-(4-methyl-1H-pyrazol-1-yl)-[1,1′-biphenyl]-2-yl)-2H-tetrazole] |  |  |  |  |  |  |  |  | 1.14 | 0.993

— US12037324B2, “Biarylmethyl heterocycles” (Université de Montréal, priority 2016, dated 2024)
